According to PubChem BioAssay (NCI):
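Assay format: 96-well plates, 48-hour exposure. TGI marks complete inhibition of growth.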

How the values were obtained:
Assay in all cases: NCI tumour cell line growth inhibition, 48 h
[1] = system: SF-539 CNS
[2] = system: COLO 205 colon
[3] = system: SK-MEL-5 melanoma
[4] = system: OVCAR-8 ovarian
[5] = system: NCI-H460 lung
[6] = system: SN12C renal
[7] = system: ACHN renal
[8] = system: NCI-H23 lung
[9] = system: DU-145 prostate
[10] = system: UO-31 renal
[11] = system: EKVX NSCLC
[12] = system: MDA-MB-435
[13] = system: MDA-N
[14] = system: M14 melanoma
[15] = system: SK-MEL-28 melanoma
[16] = system: RXF 393 renal
[17] = system: SR leukemia
[18] = system: PC-3 prostate
[19] = system: HL-60(TB) leukemia
[20] = system: KM12 colon

Row | Compound | TGI [1] | TGI [2] | TGI [3] | TGI [4] | TGI [5] | TGI [6] | TGI [7] | TGI [8] | TGI [9] | TGI [10] | TGI [11] | TGI [12] | TGI [13] | TGI [14] | TGI [15] | TGI [16] | TGI [17] | TGI [18] | TGI [19] | TGI [20]
1 | COC(=O)c1ccc(NCC2=CC(=O)C=CC2=O)cc1O | 28 µM | 31.4 µM | 80.1 µM | 30.8 µM | 43.4 µM | 66.5 µM | 26.8 µM | 36.6 µM | 29 µM | 25.4 µM | 31.6 µM | 82.9 µM | 35.8 µM | 50.6 µM | > 100 µM | 44 µM | > 100 µM | > 100 µM |  | 
2 | CCc1cc2c(cc1C(=O)CCC(=O)O)CC1(C2)Cc2cc(CC)c(C(=O)CCC(=O)O)cc2C1 | > 100 µM | > 100 µM | > 100 µM | > 100 µM | > 100 µM | > 100 µM | > 100 µM | > 100 µM | > 100 µM | > 100 µM | > 100 µM | > 100 µM | > 100 µM | > 100 µM | > 100 µM | > 100 µM |  | > 100 µM | > 100 µM | > 100 µM
3 | CN1/C(=C\N=O)C(C)(C)N(O)C1(C)C | > 100 µM | > 100 µM | > 100 µM | > 100 µM | > 100 µM | > 100 µM | > 100 µM | > 100 µM | > 100 µM | > 100 µM | > 100 µM | > 100 µM | > 100 µM | > 100 µM | > 100 µM |  | > 100 µM | > 100 µM | > 100 µM | > 100 µM
4 | C[C@H](CCC(=O)O)[C@H]1CC[C@H]2[C@@H]3[C@H](O)[C@H](O)[C@@H]4C[C@H](O)CC[C@]4(C)[C@H]3CC[C@]12C | > 100 µM | > 100 µM |  | > 100 µM | > 100 µM | > 100 µM | > 100 µM | > 100 µM | > 100 µM | > 100 µM | > 100 µM | > 100 µM | > 100 µM | > 100 µM | > 100 µM | > 100 µM |  | > 100 µM | > 100 µM | > 100 µM
5 | Cn1c2ccccc2c2c3c(c4c5ccccc5n(C)c4c21)C(=O)N(Cc1ccccc1)C3=O | > 100 µM | > 100 µM | > 100 µM | > 100 µM | > 100 µM | > 100 µM | > 100 µM | > 100 µM | > 100 µM | > 100 µM | > 100 µM | > 100 µM | > 100 µM | > 100 µM | > 100 µM |  | 51.6 µM | > 100 µM |  | > 100 µM
6 | C1=C2C3=[N+](CCCC3)CC2Cc2sccc21 (stereo not given) |  | > 100 µM | > 100 µM | > 100 µM | > 100 µM | > 100 µM | > 100 µM | > 100 µM | > 100 µM | > 100 µM | > 100 µM | > 100 µM | > 100 µM | > 100 µM | > 100 µM | > 100 µM |  | > 100 µM | > 100 µM | > 100 µM
7 | O=P(O)(O)c1ccc2c(c1)OCCOCCOCCOCCO2 | > 100 µM | > 100 µM | > 100 µM | > 100 µM | > 100 µM | > 100 µM | > 100 µM | > 100 µM | > 100 µM | > 100 µM | > 100 µM | > 100 µM | > 100 µM |  | > 100 µM |  | > 100 µM | > 100 µM | > 100 µM | > 100 µM
8 | COC(=O)[C@H](Cc1ccccc1)NC(=O)OCC1OC(n2cc(C)c(=O)[nH]c2=O)CC1N=[N+]=[N-] (stereo not given in full) |  | > 100 µM | > 100 µM | > 100 µM | > 100 µM | > 100 µM | > 100 µM | > 100 µM | > 100 µM | > 100 µM | > 100 µM | > 100 µM | > 100 µM | > 100 µM |  | > 100 µM |  | > 100 µM | > 100 µM | > 100 µM
9 | CC(C)(C)c1ccc(NS(=O)(=O)c2ccc(N)cc2)cc1 | 41.7 µM | 29.6 µM | 32.5 µM | 68.5 µM | > 100 µM | 48.6 µM | 83.6 µM | 67.9 µM | 89.5 µM | 73.5 µM | 71.8 µM | 73.5 µM | 54.7 µM | 44.2 µM | 63.7 µM | 94.1 µM |  | 85.7 µM | 38.1 µM | > 100 µM
10 | Cc1cc2c3c(nc2c2cc[nH]c(C)c12)CCCC3 | 3.72 µM | 3.37 µM | 2.89 µM | 4.96 µM | 4.27 µM | 3.39 µM | 15 µM | 10.4 µM | 11.1 µM | 6.91 µM | 8.44 µM | 3.63 µM | 3.32 µM | 3.63 µM | 3.57 µM |  | 4.29 µM | 16.6 µM | 3.76 µM | 7.13 µM
11 | COP(=O)(/C=C/C(NC(=O)C(Cl)(Cl)Cl)c1ccccc1)OC (stereo not given) |  | > 100 µM | > 100 µM | > 100 µM | > 100 µM | > 100 µM | > 100 µM | > 100 µM | > 100 µM | > 100 µM | > 100 µM | > 100 µM | > 100 µM | > 100 µM | > 100 µM | > 100 µM |  | > 100 µM | > 100 µM | > 100 µM
12 | CCSC1=N/C(=C\c2ccco2)C(Nc2ccc(C)cc2)=N1 |  | > 100 µM | > 100 µM | > 100 µM |  | > 100 µM | > 100 µM | > 100 µM | > 100 µM | > 100 µM | > 100 µM | > 100 µM | > 100 µM | > 100 µM | > 100 µM |  | > 100 µM | > 100 µM |  | > 100 µM
13 | C[n+]1c2ccccc2n2c3ccccc3c(NCc3ccco3)c(C#N)c21 | 8.79 µM | 19.9 µM | 13.7 µM |  | 4.19 µM | 9.82 µM | 9.08 µM | 8.92 µM | > 22.1 µM | 7.63 µM | 13.6 µM | 4.34 µM | 10.9 µM | 5.62 µM | 5.75 µM | 6.21 µM |  | 22.7 µM | 8.69 µM | 22 µM
